Assay results as given in patent US20260008793A1, “IONIZABLE CATIONIC LIPIDS INCORPORATING SILICON” (ALDEXCHEM KFT., priority 2022, published 2026).

How the values were obtained:
[1] = LNP size, PDI and zeta potential by Dynamic Light Scattering (Method A); assay type: physicochemical; details: LNP formulated by Method A; for Zeta potential (mV): 1xPBS pH 7.4; for PDI / Size (nm): DLS; for Size (nm): Luciferase-mRNA loaded
Protocol: (§1) The synthesized lipids were tested in term of in vitro transfection efficacy and toxicity on HeLa cells. In order to perform the mentioned biological tests, appropriate LNPs had to be formulated from the synthesized lipids. The formulation technique was different in Method A and B. The particle size, PDI and zeta potential of resulting LNPs were determined by means of Dynamic Light Scattering technique (DLS). Prior to biological testing the encapsulation efficiency (EE) of the loaded LNPs was determined by using RiboGreen RNA assay. In case of Method A Luciferase-mRNA while in case of Method B GFP-mRNA was transfected into the cells. In parallel with the transfection experiments, toxicity of the investigated LNPs was determined, in case of Method A resazurin assay while in case of Method B MTT assay was used. In the case of some lipids, the apparent pKa in LNPs was determined by using TNS titration based on the method described: Angew Chem Int Ed Engl. 2012, 51 (34), 8529-8533, doi: 10.1002/anie.201203263).
• 1. If needed, prepare stock solutions by solving known amounts of lipid powder into an appropriate solvent. The recommended solvent is Ethanol and the recommended concentration is typically in the range 10-50 mM. Higher concentrations are preferred to allow flexibility on mRNA-LNP concentration. • 2. Remove the lipid stock solutions from the −20° C. freezer. For long-term storage, −80° C. is used. • 3. Check the vials for precipitation, DOPE (CAS #4004-05-1) (20 mM) and DSPE-PEG (CAS #474922-26-4) (5 mM) may need a 5-30 minute incubation step at 37° C. with intermittent vortexing to resuspend all contents. […] As a last resort, lipids may be heated to 50° C. to resuspend, time should be kept as short as possible to prevent oxidation or other modifying or degradative processes. • 4. Mix the lipids by vortexing for 2 minutes. • 5. […] Cooling the solution prevent excessive evaporation of ethanol or similar solvents upon opening. • 6. Meanwhile, thaw the RNA samples, including the latest SecNLuc control, by inserting the frozen tube in a room temperature aluminium block. • 7. Prepare for each LNP-formulation with identical mRNA component, an RNA master mix according to Table 1 below in a fresh tube. Use of a master mix allows more precise comparison of lipid formulations relative to each other. Split the master mix over a number of fresh tubes equal to the number of samples+controls. Each tube contains 375 μl of mRNA in 10 mM Citrate pH 4.0. • 8. Prepare for each LNP formulation with identical lipid composition a Lipid master mix according to Table 1 below in a fresh tube, exclude the lipid of interest. Use of a master mix allows more precise comparison of the novel ionizable lipid relative to each other. Split the master mix over a number of fresh tubes equal to the number of samples+controls. Each tube contains 65.5 μl of lipid master mix. • 9. Add the ionizable lipid of interest to the equally divide lipid master mix. Mix well by pipetting up and down. Label the tube according to the ionizable lipid used. • 10. Power on the ‘L 1 formulation machine’ (L 1 FM) and allow it to do a calibration of motor positions.
• 18. Fill a fresh syringe (C) through a blunt 18 G stainless steel needle with the previously prepared RNA mixture of step 6. The volume should be approximately […] of total formulation volume+25 μl (dead-volume). Make sure to remove all air bubbles by tapping. • 19. Fill a fresh syringe (D) through a blunt 18 G stainless steel needle with the Lipid master mix. The volume should be approximately 35% of total formulation volume+25 μl (dead-volume). Again, Make sure to remove all bubbles. • 20. Attach the syringes in the correct orientation, syringe A on the left and syringe B on the right • 21. Load the ‘Receiving station’ with appropriate sized collection containers (2 ml Eppendorf tubes). • 22. Press the microfluidic chip to the back of the machine with your thumb and hold, press the ‘Button 1’ (40 g). […]

[2] = Encapsulation efficiency, RiboGreen RNA assay (Method A); assay type: physicochemical; details: LNP formulated by Method A
Protocol: as §1
• 1. Preparation of sample stock solutions: In the top row of the 96-well plate (Row A in the plate), add 297 μL of TE buffer pH 7.4 to a single well for each sample plus a single well for a PBS blank using a multichannel pipette. • 2. Add 3 μL of sample (at 0.5 mg/ml) to these wells for a final volume of 300 μL. Add 3 μL of PBS to the blank well. Pipette to mix. This is your stock solution for each sample. The final RNA concentration of these stock solutions should be approximately 4-7 μg/mL. • 3. mRNA-LNP sample setup: • a. Add 50 μL of TE buffer pH 7.5 to the two wells directly below each sample (Rows B and C in the plate). • b. Add 50 μL of sample stock solution from Row A into the wells in Rows B and C (this assay is run in duplicate. All liquid handling should be done using a multichannel pipette). • c. Add 50 μL of Triton buffer to the wells in Rows D and E (in the plate) below each sample. • d. Add 50 μL of sample stock solution from Row A into the wells in Rows D and E. • 4. RiboGreen RNA standard curve setup: Dilute the RNA standard to produce an RNA stock at a final concentration of 20 μg/mL in TE buffer pH 7.4. The final volume should be 150 μL. Set up a standard curve (in duplicate) as using the RNA stock (20 μg/mL siRNA), TE buffer pH 7.5, and Triton buffer according the Table 2 below.
• 5. Once samples and standard curve are plated, incubate the plate at 37° C. for 10 min to lyse mRNA-LNP in the presence of Triton X-100. • 6. Meanwhile, prepare RiboGreen Solution: Sum the total number of sample wells and standard curve wells. Add three to this number, and multiply the total by 100. This is the total volume, in μL, of RiboGreen Solution needed for this assay. In a 15 mL RNAse-free Falcon tube, dilute the RiboGreen Reagent 1:100 into TE buffer pH 7.5 to the total volume calculated. • 7. Addition of RiboGreen Solution and sample readings: Remove a 96-well plate from 37° C. incubator; let it cool to room temperature as RiboGreen binding is somewhat temperature dependent. Add 100 μL of RiboGreen Solution to each well. Pop any air bubbles with a needle. Read using fluorescent plate reader (excitation=480, emission=525). • 8. Sample analysis: Use the data generated by the RiboGreen standard curve to calculate the concentration of mRNA. Transfection Efficiency with Luciferase-mRNA (Method A)

| Compound | Zeta potential (mV) [1] [mV] | PDI [1] | Size (nm) [1] [nm] | EE (%) [2] [%] |
| --- | --- | --- | --- | --- |
| CCCCCCCCOC(CCCCCCCC)O[Si](C)(C)OCCCCCCN(CCCCO)CCCCCCOC(=O)C(CCCCCC)CCCCCCCC (stereo not shown) [Example 143, 7-(4-hydroxybutyl)-15,15-dimethyl-17-octyl-14,16,18-trioxa-7-aza-15-silahexacosyl 2-hexyldecanoate] | −5.5 | 0.17 | 159.7 | 95 |
| CCCCCCCCCC(OCCCCCC)O[Si](C)(C)OCCCCCCN(CCCCO)CCCCCCOC(=O)C(CCCCCC)CCCCCCCC (stereo not shown) [Example 144, 18-(4-hydroxybutyl)-10,10-dimethyl-8-nonyl-7,9,11-trioxa-18-aza-10-silatetracosan-24-yl 2-hexyldecanoate] | −10.5 | 0.15 | 133.9 | 97 |
| CCCCCCCCCCOC(CCCCC)O[Si](C)(C)OCCCCCCN(CCCCO)CCCCCCOC(=O)C(CCCCCC)CCCCCCCC (stereo not shown) [Example 145, 7-(4-hydroxybutyl)-15,15-dimethyl-17-pentyl-14,16,18-trioxa-7-aza-15-silaoctacosyl 2-hexyldecanoate] | −7.7 | 0.16 | 143.3 | 97 |
| CCCCCCCCOC(CCCCCCC)O[Si](C)(C)OCCCCCN(CCCCO)CCCCCCOC(=O)C(CCCCCC)CCCCCCCC (stereo not shown) [Example 146, 16-heptyl-7-(4-hydroxybutyl)-14,14-dimethyl-13,15,17-trioxa-7-aza-14-silapentacosyl 2-hexyldecanoate] | −11.0 | 0.07 | 116.7 | 97 |
| CCCCCCCCSC(CCCCCCC)O[Si](C)(C)OCCCCCCN(CCCCO)CCCCCCOC(=O)C(CCCCCC)CCCCCCCC (stereo not shown) [Example 147, 17-heptyl-7-(4-hydroxybutyl)-15,15-dimethyl-14,16-dioxa-18-thia-7-aza-15-silahexacosyl 2-hexyldecanoate] | −7.5 | 0.14 | 146.8 | 96 |
| CCCCCCCCCCSC(CCCC)C(=O)OCCCCCCN(CCCCO)CCCCCC(OCCCCCCCC)O[Si](C)(C)CCCCCCCC (stereo not shown) [Example 166, 6-((6-((dimethyl(octyl)silyl)oxy)-6-(octyloxy)hexyl)(4-hydroxybutyl)amino)hexyl 2-(decylthio)hexanoate] | −13.01 | 0.185 | 223.6 | 94 |
| CCCCCCCCCCSC(CCCC)C(=O)OCCCCCCN(CCCCO)CCCCCC(OCCCCCCCC)O[Si](C)(C)OCCCCCCCC (stereo not shown) [Example 168, 7-(4-hydroxybutyl)-15,15-dimethyl-13-(octyloxy)-14,16-dioxa-7-aza-15-silatetracosyl 2-(decylthio)hexanoate] | −11.79 | 0.085 | 224.2 | 96 |
| CCCCCCCCCCSC(CCCC)C(=O)OCCCCCCN(CCCCO)CCCCCCOC(CCCCCCC)O[Si](C)(C)OCCCCCCCC (stereo not shown) [Example 169, 15-heptyl-7-(4-hydroxybutyl)-17,17-dimethyl-14,16,18-trioxa-7-aza-17-silahexacosyl 2-(decylthio)hexanoate] | −13.9 | 0.09 | 159.7 | 95 |
| CCCCCCCCCCSC(CCCC)C(=O)OCCCCCCN(CCCCO)CCCCCC(OCCCCCCCC)O[Si](C)(C)O[Si](C)(C)CCCCCCCC (stereo not shown) [Example 170, 6-((4-hydroxybutyl)(6-(octyloxy)-6-((1,1,3,3-tetramethyl-3-octyldisiloxaneyl)oxy)hexyl)amino)hexyl 2-(decylthio)hexanoate] | −14.68 | 0.210 | 207.5 | 94 |
| CCCCCCCCCCSC(CCCC)C(=O)OCCCCCCN(CCCCO)CCCCCCOC(CCCCCCC)O[Si](C)(C)O[Si](C)(C)CCCCCCCC (stereo not shown) [Example 171, 15-heptyl-7-(4-hydroxybutyl)-17,17,19,19-tetramethyl-14,16,18-trioxa-7-aza-17,19-disilaheptacosyl 2-(decylthio)hexanoate] | −12.04 | 0.017 | 178.9 | 95 |
| CCCCCCCCCCSC(CCCC)C(=O)OCCCCCCN(CCCCO)CCCCCC(OCCCCCCCC)O[Si](C)(C)O[Si](C)(C)OCCCCCCCC (stereo not shown) [Example 172, 6-((4-hydroxybutyl)(6-(octyloxy)-6-((1,1,3,3-tetramethyl-3-(octyloxy)disiloxaneyl)oxy)hexyl)amino)hexyl 2-(decylthio)hexanoate] | −9.92 | 0.07 | 151.7 | 97 |
| CCCCCCCCCCSC(CCCC)C(=O)OCCCCCCN(CCCCO)CCCCCCOC(CCCCCCC)O[Si](C)(C)O[Si](C)(C)OCCCCCCCC (stereo not shown) [Example 173, 15-heptyl-7-(4-hydroxybutyl)-17,17,19,19-tetramethyl-14,16,18,20-tetraoxa-7-aza-17,19-disilaoctacosyl 2-(decylthio)hexanoate] | −11.32 | 0.033 | 180.5 | 97 |
| CCCCCCCCCCSC(CCCC)C(=O)OCCCCCCN(CCCCO)CCCCCC(OCCCCCCCC)O[Si](C)(C)OCC(CCCCCC)CCCCCCCC (stereo not shown) [Example 174, 18-hexyl-7-(4-hydroxybutyl)-15,15-dimethyl-13-(octyloxy)-14,16-dioxa-7-aza-15-silahexacosyl 2-(decylthio)hexanoate] | −15.5 | 0.159 | 222.6 | 96 |
